In patent publication US11319321B2, “[1,2,4]triazolo[1,5-a]pyrimidine compounds as PDE2 inhibitors” (Janssen Pharmaceutica NV, priority 2016, dated 2022):
Like-named read-outs stand apart in the source and are kept apart here.

Legend:
[1] = target: T1, PDE2A (Rattus norvegicus, UniProt Q01062); assay: PDE2 occupancy by ex-vivo autoradiography with [3H]B-17a; format: in vivo; details: read-out: PDE2 occupancy at 10 mg/kg
T1 construct: Twenty μm-thick striatal sections were cut; from tissue; host or cells: rat brain, striatal sections
T1 sequence (Q01062 1-928): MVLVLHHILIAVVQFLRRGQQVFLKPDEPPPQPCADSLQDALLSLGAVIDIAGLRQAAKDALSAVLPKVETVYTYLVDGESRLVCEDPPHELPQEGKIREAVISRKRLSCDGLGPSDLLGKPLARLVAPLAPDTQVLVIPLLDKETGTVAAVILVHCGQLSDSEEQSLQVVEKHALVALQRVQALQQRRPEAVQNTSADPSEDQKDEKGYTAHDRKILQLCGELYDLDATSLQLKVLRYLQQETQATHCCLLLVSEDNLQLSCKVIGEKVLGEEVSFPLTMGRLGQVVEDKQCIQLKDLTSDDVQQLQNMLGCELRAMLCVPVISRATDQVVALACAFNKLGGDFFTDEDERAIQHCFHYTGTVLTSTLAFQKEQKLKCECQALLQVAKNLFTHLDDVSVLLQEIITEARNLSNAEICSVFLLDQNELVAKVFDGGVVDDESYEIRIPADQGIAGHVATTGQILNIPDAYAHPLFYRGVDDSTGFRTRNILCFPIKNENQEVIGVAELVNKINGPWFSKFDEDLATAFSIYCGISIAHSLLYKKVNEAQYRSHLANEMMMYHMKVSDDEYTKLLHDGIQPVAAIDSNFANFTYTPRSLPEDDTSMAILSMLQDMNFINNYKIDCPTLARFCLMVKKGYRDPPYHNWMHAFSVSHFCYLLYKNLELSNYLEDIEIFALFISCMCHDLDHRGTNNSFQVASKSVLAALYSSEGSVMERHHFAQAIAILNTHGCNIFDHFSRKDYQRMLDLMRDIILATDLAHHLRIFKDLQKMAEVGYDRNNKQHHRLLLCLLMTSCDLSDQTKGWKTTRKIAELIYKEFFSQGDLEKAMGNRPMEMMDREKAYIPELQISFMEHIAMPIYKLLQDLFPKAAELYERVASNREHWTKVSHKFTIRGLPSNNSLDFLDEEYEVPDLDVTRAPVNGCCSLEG
Procedure: Brains were immediately removed from the skull and rapidly frozen in dry-ice cooled 2-methylbutane (−40° C.).
After thawing, sections were dried under a cold stream of air and incubated for one minute with 30 nM [^3H]B-17a in Tris-HCl (50 mM, pH7.4) containing 0.3% BSA. Brain sections from drug-treated and vehicle-treated animals were incubated in parallel. […] After incubation, the excess of [^3H]B-17a was washed off in ice-cold buffer 2 times 10 minutes, followed by a quick dip in distilled water. The sections were then dried under a stream of cold air.
Brain sections were loaded in a […] (Biospace, Paris) for 4 h and radioactivity emerging from delineated brain area was quantified using the Beta vision program (Biospace, Paris). Specific binding was determined as the difference between total binding in the striatum and non-specific binding in the cerebellum. Percentage receptor occupancy of the drug administered to the animal corresponded to 100% minus the percentage receptor labeled in the treated animal. For the determination of ED50-values, the percentage of receptor occupancy was plotted against dose and the sigmoidal log dose-effect curve of best fit was calculated by non-linear regression analysis, using the GraphPad Prism program.

[2] = target: hPDE10A2 (Homo sapiens, UniProt Q9Y233); assay: biochemical; details: 60 nM cAMP substrate; for IC50: read-out: hPDE10A2 or rPDE10A2 pIC50 (converted); for Emax: read-out: hPDE10A2 or rPDE10A2 Emax, human clone
Sequence of hPDE10A2 (Q9Y233 267-1055): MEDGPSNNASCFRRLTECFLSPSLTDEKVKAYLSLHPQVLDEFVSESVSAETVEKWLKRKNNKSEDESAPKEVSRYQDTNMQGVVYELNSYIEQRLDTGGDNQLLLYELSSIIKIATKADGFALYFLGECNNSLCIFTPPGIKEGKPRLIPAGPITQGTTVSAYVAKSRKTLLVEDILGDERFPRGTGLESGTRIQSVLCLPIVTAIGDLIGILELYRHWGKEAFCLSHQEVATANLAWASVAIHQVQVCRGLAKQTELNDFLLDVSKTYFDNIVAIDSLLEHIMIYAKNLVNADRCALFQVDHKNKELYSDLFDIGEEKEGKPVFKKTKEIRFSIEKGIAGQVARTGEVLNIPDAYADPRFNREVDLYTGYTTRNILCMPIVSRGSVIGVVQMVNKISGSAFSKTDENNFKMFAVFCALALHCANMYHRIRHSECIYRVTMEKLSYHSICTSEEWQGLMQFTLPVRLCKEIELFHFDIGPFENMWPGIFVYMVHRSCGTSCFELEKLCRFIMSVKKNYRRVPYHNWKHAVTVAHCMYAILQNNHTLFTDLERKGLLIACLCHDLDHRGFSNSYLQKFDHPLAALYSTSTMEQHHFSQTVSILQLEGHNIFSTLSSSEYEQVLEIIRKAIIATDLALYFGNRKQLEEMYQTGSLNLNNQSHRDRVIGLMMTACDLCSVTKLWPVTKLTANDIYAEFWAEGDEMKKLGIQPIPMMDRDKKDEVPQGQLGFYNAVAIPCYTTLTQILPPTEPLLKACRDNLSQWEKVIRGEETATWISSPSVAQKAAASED
Procedure: (§1) Rat recombinant PDE10A (rPDE10A2) was expressed in Sf9 cells using a recombinant rPDE10A baculovirus construct. Cells were harvested after 48 h of infection and the rPDE10A protein was purified by metal chelate chromatography on Ni-sepharose 6FF. Tested compounds were dissolved and diluted in 100% DMSO to a concentration 100 fold of the final concentration in the assay. Human recombinant PDE10A ([…]) was expressed in Sf9 cells using a recombinant hPDE10A baculovirus that was made and amplified in house. Cells were harvested after 72 h of infection and the hPDE10A protein was purified by metal chelate chromatography on Ni-sepharose. Compound dilutions (0.4 μl) were added in 384 well plates to 20 μl of incubation buffer (50 mM Tris pH 7.8, 8.3 mM MgCl2, 1.7 mM EGTA). 10 μl of rPDE10A or hPDE10A enzyme in incubation buffer was added and the reaction was started by addition of 10 μl substrate to a final concentration of 60 nM cAMP and […] ^3H-cAMP. The reaction was incubated for 60 minutes at room temperature. After incubation, the reaction was stopped with 20 μl of stop solution consisting of 17.8 mg/ml PDE SPA (scintillation proximity assay) beads. After sedimentation of the beads during 30 minutes the radioactivity was measured in a Perkin Elmer Topcount scintillation counter and results were expressed as cpm. For blanc values the enzyme was omitted from the reaction and replaced by incubation buffer. Control values were obtained by addition of a final concentration of 1% DMSO instead of compound. A best fit curve is fitted by a minimum sum of squares method to the plot of % of control value substracted with blanc value versus compound concentration and the half maximal inhibitory concentration (IC50) value is derived from this curve.

[3] = target: T2, Human recombinant PDE2A (hPDE2A) (Homo sapiens, UniProt O00408); assay: In vitro assay PDE2A (SPA, 3H-cGMP); format: biochemical
T2 construct: made in house; host or cells: Sf9 insect cells (baculovirus)
T2 sequence (O00408 whole entry): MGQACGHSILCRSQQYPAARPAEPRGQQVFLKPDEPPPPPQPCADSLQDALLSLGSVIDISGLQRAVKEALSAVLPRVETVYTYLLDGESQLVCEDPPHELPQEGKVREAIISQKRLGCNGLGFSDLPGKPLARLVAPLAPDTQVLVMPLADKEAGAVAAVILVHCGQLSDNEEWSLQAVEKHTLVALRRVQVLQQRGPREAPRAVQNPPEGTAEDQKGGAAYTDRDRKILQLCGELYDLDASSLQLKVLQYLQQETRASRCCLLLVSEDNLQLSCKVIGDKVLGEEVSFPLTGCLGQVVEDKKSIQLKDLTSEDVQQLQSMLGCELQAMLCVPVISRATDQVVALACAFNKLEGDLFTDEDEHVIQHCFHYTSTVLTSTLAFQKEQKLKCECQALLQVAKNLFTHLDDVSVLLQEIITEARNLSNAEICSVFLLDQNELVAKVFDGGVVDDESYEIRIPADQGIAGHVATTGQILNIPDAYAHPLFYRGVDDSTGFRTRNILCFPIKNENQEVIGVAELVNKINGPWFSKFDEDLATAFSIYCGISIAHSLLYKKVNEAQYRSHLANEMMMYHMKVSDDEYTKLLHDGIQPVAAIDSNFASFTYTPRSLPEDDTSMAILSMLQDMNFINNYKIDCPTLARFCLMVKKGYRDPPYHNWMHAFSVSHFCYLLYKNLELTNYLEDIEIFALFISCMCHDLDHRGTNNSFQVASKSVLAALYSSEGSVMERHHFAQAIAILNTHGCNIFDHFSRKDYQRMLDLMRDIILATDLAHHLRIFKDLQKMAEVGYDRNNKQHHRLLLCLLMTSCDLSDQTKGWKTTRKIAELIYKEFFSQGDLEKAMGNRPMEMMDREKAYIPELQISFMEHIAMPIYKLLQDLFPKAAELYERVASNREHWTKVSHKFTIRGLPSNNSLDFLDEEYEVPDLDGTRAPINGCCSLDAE
Procedure: Human recombinant PDE2A (hPDE2A) was expressed in Sf9 cells using a recombinant rPDE10A baculovirus construct. Cells were harvested after 48 h of infection and the hPDE2A protein was purified by metal chelate chromatography on Ni-sepharose 6FF. Tested compounds were dissolved and diluted in 100% DMSO to a concentration 100 fold of the final concentration in the assay. Compound dilutions (0.4 μl) were added in 384 well plates to 20 μl of incubation buffer (50 mM Tris pH 7.8, 8.3 mM MgCl2, 1.7 mM EGTA). 10 μl of hPDE2A enzyme in incubation buffer was added and the reaction was started by addition of 10 μl substrate to a final concentration of 10 μM cGMP and 0.01 μCi ^3H-cGMP. The reaction was incubated for 45 minutes at room temperature. […] After sedimentation of the beads during 30 minutes the radioactivity was measured in a Perkin Elmer Topcount scintillation counter and results were expressed as cpm. For blanc values the enzyme was omitted from the reaction and replaced by incubation buffer. Control values were obtained by addition of a final concentration of 1% DMSO instead of compound.

[4] = tested on: hPDE3B; assay: In vitro assay PDE3 (SPA, 3H-cAMP); format: biochemical, human; details: 0.4 μM cAMP substrate; for hPDE3B Emax: in % (unit assumed)
[5] = target: T3, rPDE10A2 (Rattus norvegicus, UniProt Q9QYJ6); assay: In vitro assay PDE10A, rat clone (SPA, 3H-cAMP); format: biochemical; details: for IC50: rat clone (r), 60 nM cAMP substrate, read-out: hPDE10A2 or rPDE10A2 pIC50 (converted); for Emax: read-out: hPDE10A2 or rPDE10A2 Emax
T3 construct: made in house; host or cells: Sf9 insect cells (baculovirus)
T3 sequence (Q9QYJ6 1-794): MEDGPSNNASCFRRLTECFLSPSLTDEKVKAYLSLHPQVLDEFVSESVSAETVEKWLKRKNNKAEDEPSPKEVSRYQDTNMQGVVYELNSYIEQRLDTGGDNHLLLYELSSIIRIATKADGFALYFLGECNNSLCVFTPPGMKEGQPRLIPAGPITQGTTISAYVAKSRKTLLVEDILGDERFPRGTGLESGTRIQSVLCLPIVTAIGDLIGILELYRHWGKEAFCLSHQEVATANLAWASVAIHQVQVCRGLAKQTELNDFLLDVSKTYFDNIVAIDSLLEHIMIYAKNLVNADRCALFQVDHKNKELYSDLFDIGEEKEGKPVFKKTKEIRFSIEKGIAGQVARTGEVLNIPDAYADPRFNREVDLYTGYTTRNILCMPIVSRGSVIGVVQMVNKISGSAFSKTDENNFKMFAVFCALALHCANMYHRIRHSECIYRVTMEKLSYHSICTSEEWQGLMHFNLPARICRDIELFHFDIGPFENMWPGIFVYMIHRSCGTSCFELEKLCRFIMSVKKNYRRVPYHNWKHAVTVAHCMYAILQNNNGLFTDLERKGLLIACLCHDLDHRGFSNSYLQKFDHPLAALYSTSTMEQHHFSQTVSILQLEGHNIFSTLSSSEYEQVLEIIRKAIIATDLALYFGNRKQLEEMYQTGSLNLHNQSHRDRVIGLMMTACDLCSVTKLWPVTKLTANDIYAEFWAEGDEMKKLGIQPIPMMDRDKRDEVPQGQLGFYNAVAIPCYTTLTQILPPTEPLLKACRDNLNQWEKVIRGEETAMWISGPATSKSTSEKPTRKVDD
Procedure: as §1

[6] = male Wistar rats, 10 mg/kg SC (subcutaneous), striatum, percentage occupancy
[7] = hPDE2A pIC50, 10 μM cGMP substrate
[8] = 10 μM cGMP substrate, read-out: hPDE2A pIC50 (converted)

Row | SMILES | receptor occupancy at 10 mg/kg [1, 6] [%] | IC50 ([2]; human clone) [nM] | Emax [2] [%] | Emax ([3]; 10 μM cGMP substrate) [%] | IC50 [3, 7] [nM] | hPDE3B pIC50 [4] | hPDE3B Emax [4] | IC50 [3] [nM] | receptor occupancy at 10 mg/kg ([1]; po) [%] | melting point [°C] | IC50 [5] [nM] | Emax [5] [%] | hPDE10A2 or rPDE10A2 Emax ([2]; human clone) | hPDE2A Emax ([3]; 10 μM cGMP substrate) | IC50 [3, 8] [nM]
1 | C[C@@H]1CCN(Cc2cc3ccccc3cn2)C[C@H]1c1cc(C(F)F)nc2ncnn12 [Compound 8] | 0 | 1480 | 85 | 100 | 8.51 | 5.09 | 61 |  |  |  |  |  |  |  | 
2 | Cc1cc(CN2CC[C@@H](C)[C@H](c3cc(C(F)F)nc4ncnn34)C2)cc(C)n1.Cl [Compound 33] | 37 | 4070 | 72 | 96 |  | <5 | 8 | 22.4 |  |  |  |  |  |  | 
3 | Cc1cc(CN2CC[C@@H](C)[C@H](c3cc(C(F)F)nc4ncnn34)C2)cc(C)c1Cl.Cl [Compound 36] |  | 3720 | 82 | 100 |  |  | 43 | 56.2 | 0 |  |  |  |  |  | 
4 | C[C@@H]1CCN(Cc2cccc(N3CCCCC3)n2)C[C@H]1c1cc(C(F)F)nc2ncnn12 [Compound 17] |  | > 10000 | 49 | 100 | 195 | <5 | 41 |  |  | 137.52 |  |  |  |  | 
5 | FC(F)c1cc(C2CCCN(Cc3cc4ccccc4o3)C2)n2ncnc2n1 (stereo not shown) [Compound 37] |  |  |  | 81 | 200 | 5.92 | 88 |  |  |  | 1050 | 50.7 |  |  | 
6 | Cc1cc(C(C)N2CC[C@@H](C)[C@H](c3cc(C(F)F)nc4ncnn34)C2)cc(C)n1 (single isomer, unassigned) [Compound 1b, 5-(difluoromethyl)-7-[(3 S,4R)-1-[(1S*)-1-(2,6-dimethyl-4-pyridyl)ethyl]-4-methyl-3-piperidyl]-[1,2,4]triazolo[1,5-a]pyrimidine] | 42 | 2880 |  |  | 11.7 | <5 | 19 |  |  |  |  |  | 80 | 100 | 
7 | Cc1cc([C@@H](C)N2CC[C@@H](C)[C@H](c3cc(C(F)F)nc4ncnn34)C2)cc(C2CC2)n1 (relative stereo) [Compound 3] |  | 1260 | 91 | 100 |  | <5 | 19 |  | 21 |  |  |  |  |  | 13.5
8 | C[C@@H]1CCN(Cc2ccc3nccn3c2)C[C@H]1c1cc(C(F)F)nc2ncnn12 [Compound 34] |  | 4680 | 67 | 91 |  | <5 | 18 | 22.9 | 0 |  |  |  |  |  | 
9 | Cc1cc(C(C)N2CC[C@@H](C)[C@H](c3cc(C(F)F)nc4ncnn34)C2)cc(C)n1 (single isomer, unassigned) [Compound 1a, 5-(difluoromethyl)-7-[(3 S,4R)-1-[(1R*)-1-(2,6-dimethyl-4-pyridyl)ethyl]-4-methyl-3-piperidyl]-[1,2,4]triazolo[1,5-a]pyrimidine] |  | 5620 | 64 | 99 | 102 | <5 | 34 |  |  | 141.46 |  |  |  |  | 
10 | Cc1cc(CN2CCCC(C)(c3cc(C(F)F)nc4ncnn34)C2)cc(Cl)n1 (stereo not shown) [Compound 28] |  |  |  | 16 |  | <5 | 10 | 5620 |  |  | > 10000 | 7.2 |  |  | 
11 | Cl.FC(F)c1cc([C@H]2CC[C@H]3CC[C@@H]2N3Cc2ccc(Cl)c(Cl)c2)n2ncnc2n1 [Compound 57] |  | 7940 | 58 | 100 |  | <5 | 35 | 105 |  |  |  |  |  |  | 
12 | C[C@@H]1CCN(Cc2ccccc2)C[C@H]1c1cc(C(F)F)nc2ncnn12 [Compound 20] |  | > 10000 | 26 | 97 |  | <5 | 23 |  |  |  |  |  |  |  | 457
